Assay results published in ChEMBL document CHEMBL1122827 (1985).
The source made the active and inactive calls. The rule behind the calls is not given here. Where a SMILES comes first, the peptide text is derived from it. The star is where a group is joined. Mob = COc1ccc(C*)cc1; Bn = c1ccc(C*)cc1

Experiments:
Format in all cases: functional
Cavia porcellus [1] = organism: Cavia porcellus; experiment: Relative affinity in guinea pig ileum(GPI) was determined
Cavia porcellus [2] = organism: Cavia porcellus; experiment: Intrinsic activity in guinea pig ileum(GPI) was determined
Cavia porcellus [3] = organism: Cavia porcellus; experiment: The concentration required to produce 50% of the maximal effect in guinea pig ileum(GPI)
Cavia porcellus [4] = organism: Cavia porcellus; experiment: The concentration required to produce 50% of the maximal effect in guinea pig trachea(GPT) at 10e-4 M; Inactive
Oryctolagus cuniculus [5] = organism: Oryctolagus cuniculus; experiment: The concentration required to produce 50% of the maximal effect in rabbit mesenteric vein(RMV) at 10e-4 M; Inactive
Cavia porcellus [6] = organism: Cavia porcellus; experiment: The concentration required to produce 50% of the maximal effect in guinea pig trachea(GPT)
Oryctolagus cuniculus [7] = organism: Oryctolagus cuniculus; experiment: Relative affinity in rabbit mesenteric vein(RMV) was determined
Oryctolagus cuniculus [8] = organism: Oryctolagus cuniculus; experiment: The concentration required to produce 50% of the maximal effect in rabbit mesenteric vein(RMV)
Cavia porcellus [9] = organism: Cavia porcellus; experiment: Intrinsic activity in guinea pig trachea(GPT) was determined
Cavia porcellus [10] = organism: Cavia porcellus; experiment: Relative affinity in guinea pig trachea(GPT) was determined
Oryctolagus cuniculus [11] = organism: Oryctolagus cuniculus; experiment: Intrinsic activity in rabbit mesenteric vein(RMV) was determined

`CC(C)C[C@@H]1NC(=O)CNC(=O)[C@H](Cc2ccccc2)NC(=O)[C@H](Cc2ccccc2)NC(=O)[C@@H](N)CSSC[C@@H](C(N)=O)NC1=O` was tested, and the AR (Cavia porcellus [1]) was 0.02, the “Alpha E” value (Cavia porcellus [2]) was 0.7 and the pD2 (Cavia porcellus [3]) was 4.83.

In the case of `CC(C)C[C@H]1NC(=O)CNC(=O)[C@@H](Cc2ccccc2)NC(=O)[C@H](Cc2ccccc2)NC(=O)[C@@H](N)CSSC[C@H](C(N)=O)NC1=O`, the pD2 (Cavia porcellus [4]) is reported as “inactive” and the pD2 (Oryctolagus cuniculus [5]) is reported as “inactive”.

For `COc1ccc(CSC[C@H](N)C(=O)N[C@@H](CCC(N)=O)C(=O)N[C@@H](Cc2ccccc2)C(=O)N[C@@H](Cc2ccccc2)C(=O)NCC(=O)N[C@@H](CC(C)C)C(=O)N[C@@H](CSCc2ccccc2)C(N)=O)cc1` (H-C(Mob)QFFGLC(Bn)-NH2), the AR (Cavia porcellus [1]) was 0.8, the pD2 (Cavia porcellus [6]) was 5.22 and the AR (Oryctolagus cuniculus [7]) was 2.8. The “Alpha E” value (Cavia porcellus [2]) was 1.2, the pD2 (Oryctolagus cuniculus [8]) was 5.98 and the “Alpha E” value (Cavia porcellus [9]) was 0.8. For the same molecule, the AR (Cavia porcellus [10]) was 3, the pD2 (Cavia porcellus [3]) was 6.37 and the “Alpha E” value (Oryctolagus cuniculus [11]) was 0.4.
